Measurements taken from patent US20110028479A1, “SUBSTITUTED PYRROLOTRIAZINES AND THEIR USE” (BAYER SCHERING PHARMA AKTIENGESELLSCHAFT, priority 2007, published 2011).

Molecular target: T1, Prostacyclin Receptors (IP Receptors) of Human Thrombocyte Membranes (Homo sapiens, UniProt P43119)
T1 construct: Thrombocyte membranes are obtained by centrifuging 50 ml of human blood; tissue Maco Pharma, Langen (buffy coats); host or cells: human thrombocyte (platelet) membranes prepared from human blood
Assay: Binding to prostacyclin receptors (IP receptors) of human thrombocyte membranes, 3H-Iloprost displacement
Conditions: 3 nM 3H-Iloprost, 60 min, room temperature
Procedure: B-1. Studies of Binding to Prostacyclin Receptors (IP Receptors) of Human Thrombocyte Membranes
Thrombocyte membranes are obtained by centrifuging 50 ml of human blood (Buffy coats with CDP Stabilizer, from Maco Pharma, Langen) for 20 min at 160×g. Remove the supernatant (platelet-rich plasma, PRP) and then centrifuge again at 2000×g for 10 min at room temperature. Resuspend the sediment in 50 mM tris(hydroxymethyl)aminomethane, which has been adjusted to a pH of 7.4 with 1 N hydrochloric acid, and store at −20° C. overnight. On the next day, centrifuge the suspension at 80 000×g and 4° C. for 30 min. Discard the supernatant. […]
For the binding test, incubate 3 nM ^3H-Iloprost (592 GBq/mmol, from AmershamBioscience) for 60 min with 300-1000 μg/ml of human thrombocyte membranes per charge (max. 0.2 ml) in the presence of the test substances at room temperature. […] After adding Ultima Gold Scintillator, quantify the radioactivity bound to the membranes using a scintillation counter. The nonspecific binding is defined as radioactivity in the presence of 1 μM Iloprost (from Cayman Chemical, Ann Arbor) and is as a rule <25% of the bound total radioactivity. The binding data (IC50 values) are determined using the program GraphPad Prism Version 3.02.

T1 sequence (P43119 whole entry): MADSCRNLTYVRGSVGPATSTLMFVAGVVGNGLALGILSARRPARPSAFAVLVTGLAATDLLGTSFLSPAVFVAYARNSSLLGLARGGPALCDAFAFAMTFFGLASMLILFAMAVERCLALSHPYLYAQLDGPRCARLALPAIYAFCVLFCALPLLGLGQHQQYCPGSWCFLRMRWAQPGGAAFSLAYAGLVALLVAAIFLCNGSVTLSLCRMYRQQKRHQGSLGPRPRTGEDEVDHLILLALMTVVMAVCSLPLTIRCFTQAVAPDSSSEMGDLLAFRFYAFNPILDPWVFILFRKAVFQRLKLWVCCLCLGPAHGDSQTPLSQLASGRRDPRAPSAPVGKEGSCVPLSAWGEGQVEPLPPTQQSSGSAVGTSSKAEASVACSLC

Compound	IC50 [nM]
COc1ccc(-c2c(-c3ccccc3)cn3ncnc(NCCCCCC(=O)O)c23)cc1 [Example 3]	636
COc1ccc(-c2c(-c3ccccc3)cn3ncnc(O[C@H](C)CCCCC(=O)O)c23)cc1 [Example 4, (6R)-6-{[5-(4-methoxyphenyl)-6-phenylpyrrolo[2,1-f][1,2,4]triazin-4-yl]oxy}heptanoic acid]	224
